Reference: the supplement of paper PMC10307832

Experiments:
Assay in all cases: relative viability (nuclei count vs DMSO), 5 days (fraction); higher = more cells survive
Alisertib + Bortezomib = compound: COc1cc(Nc2ncc3c(n2)-c2ccc(Cl)cc2C(c2c(F)cccc2OC)=NC3)ccc1C(=O)O [Alisertib] + CC(C)C[C@H](NC(=O)[C@H](Cc1ccccc1)NC(=O)c1cnccn1)B(O)O [Bortezomib] (partner 0.002 µM)
Procedure, shortened: (§1)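 Values are medians from duplicate plates. Each reflects relative viability, defined as the nuclei count of treated wells over that of vehicle wells. Lung cancer cell lines in 1536-well plates were pin-tool dosed one day after seeding with one drug alone or with a fixed anchor-drug dose plus five library-drug doses (not always all listed) in √10 steps, then fixed, stained and imaged at 4× after 5 days.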

Alisertib + AZD7762 = compound: COc1cc(Nc2ncc3c(n2)-c2ccc(Cl)cc2C(c2c(F)cccc2OC)=NC3)ccc1C(=O)O [Alisertib] + NC(=O)Nc1cc(-c2cccc(F)c2)sc1C(=O)N[C@H]1CCCNC1 [AZD7762] (partner 0.2 µM)
Procedure, shortened: as §1

Alisertib + Lapatinib = compound: COc1cc(Nc2ncc3c(n2)-c2ccc(Cl)cc2C(c2c(F)cccc2OC)=NC3)ccc1C(=O)O [Alisertib] + CS(=O)(=O)CCNCc1ccc(-c2ccc3ncnc(Nc4ccc(OCc5cccc(F)c5)c(Cl)c4)c3c2)o1 [Lapatinib] (partner 2 µM)
Procedure, shortened: as §1

Alisertib + Decitabine = compound: COc1cc(Nc2ncc3c(n2)-c2ccc(Cl)cc2C(c2c(F)cccc2OC)=NC3)ccc1C(=O)O [Alisertib] + Nc1ncn([C@H]2C[C@H](O)[C@@H](CO)O2)c(=O)n1 [Decitabine] (partner 2 µM)
Procedure, shortened: as §1

Cell Line	relative viability (Alisertib + Bortezomib; first compound 0.005 µM)	relative viability (Alisertib + Bortezomib; first compound 0.01581 µM)	relative viability (Alisertib + Bortezomib; first compound 0.05 µM)	relative viability (Alisertib + Bortezomib; first compound 0.1581 µM)	relative viability (Alisertib + Bortezomib; first compound 0.5 µM)	relative viability (Alisertib + AZD7762; first compound 0.005 µM)	relative viability (Alisertib + AZD7762; first compound 0.01581 µM)	relative viability (Alisertib + AZD7762; first compound 0.05 µM)	relative viability (Alisertib + AZD7762; first compound 0.1581 µM)	relative viability (Alisertib + AZD7762; first compound 0.5 µM)	relative viability (Alisertib + Lapatinib; first compound 0.005 µM)	relative viability (Alisertib + Lapatinib; first compound 0.01581 µM)	relative viability (Alisertib + Lapatinib; first compound 0.05 µM)	relative viability (Alisertib + Lapatinib; first compound 0.1581 µM)	relative viability (Alisertib + Lapatinib; first compound 0.5 µM)	relative viability (Alisertib + Decitabine; first compound 0.005 µM)	relative viability (Alisertib + Decitabine; first compound 0.01581 µM)	relative viability (Alisertib + Decitabine; first compound 0.05 µM)	relative viability (Alisertib + Decitabine; first compound 0.1581 µM)	relative viability (Alisertib + Decitabine; first compound 0.5 µM)
201T	1.05	1.07	1.08	1.07	0.694	0.618	0.753	0.675	0.46	0.277	0.94	1.06	1.05	0.954	0.458	0.837	0.847	0.72	0.582	0.802
A549											0.812	0.235	0.148	0.0742	0.0628	0.247	0.207	0.125	0.0435	0.0399
A-427	0.89	0.818	0.751	0.149	0.15	0.602	0.362	0.206	0.196	0.212	0.869	0.931	0.853	0.185	0.142	0.52	0.442	0.233	0.211	0.211
ABC-1	0.279	0.269	0.315	0.278	0.278		0.594	0.648	0.307	0.272	1.22	1.1	1.05	0.91	0.616	1.12	0.915	0.869	0.598	0.33
BEN	0.691	0.867	0.398	0.229	0.2	0.57	0.592	0.359	0.335	0.389	0.707	0.585	0.261	0.203	0.221	0.607	0.51	0.304	0.363	0.325
CAL-12T	0.768	0.489	0.296	0.221	0.201	0.528	0.314	0.183	0.224	0.201	0.556	0.526	0.195	0.198	0.169					
COR-L23	0.895	0.789	0.647	0.137	0.131						0.929	0.759	0.47	0.165	0.124	0.422	0.419	0.307	0.146	0.118
COR-L 105	0.757	0.875	0.447	0.27	0.218						0.322	0.413	0.319	0.223	0.263	0.633	0.698	0.481	0.349	0.324
Calu-6	0.89	0.57	0.316	0.189	0.195						0.925	0.541	0.382	0.204	0.216					
ChaGo-K-1	0.88	0.696	0.322	0.276	0.232	0.827	0.755	0.633	0.213	0.166						0.518	0.423	0.222	0.197	0.19
EKVX	0.967	0.8	0.391	0.185	0.169	0.554	0.46	0.278	0.132	0.172	0.211	0.238	0.16	0.126	0.111	0.303	0.302	0.206	0.174	0.158
EMC-BAC-2	0.91	0.947	0.579	0.229	0.243	0.834	0.569	0.591	0.313	0.28	0.764	0.813	0.671	0.267	0.236	0.849	0.694	0.445	0.343	0.291
EPLC-272H	0.794	0.856	0.79	0.135	0.13	0.286	0.308	0.196	0.12	0.106	0.756	0.612	0.846	0.152	0.112	0.344	0.363	0.295	0.141	0.152
H3255	0.664	0.733	0.46	0.216	0.195	0.712	0.952	0.613	0.274	0.234	0.277	0.256	0.269	0.169	0.176	0.602	0.467	0.396	0.241	0.143
HARA	1.06	1.11	0.651	0.191	0.108	0.28	0.567	0.339	0.217	0.0911	0.616	0.631	0.848	0.129	0.0993	0.524	0.58	0.334	0.208	0.145
HCC-15	0.941	0.901	0.48	0.164	0.118	0.994	1.16	1.12	0.355	0.133	0.746	0.671	0.392	0.122	0.109	0.541	0.316	0.19	0.13	0.139
HCC-44	0.95	0.827	0.664	0.28	0.15	0.888	0.992	0.966	0.588	0.439	0.991	0.922	0.906	0.242	0.151	0.895	0.937	0.849	0.419	0.364
IA-LM	0.635	0.578	0.465	0.195	0.0832						0.853	0.91	0.309	0.212	0.184					
LCLC-103H	1.19	1.01	1.09	0.262	0.3	0.711	0.767	0.764	0.41	0.322						0.72	0.714	0.355	0.315	0.431
LK-2						0.321	0.382	0.205	0.153	0.14	0.842	0.87	0.49	0.344	0.242	0.294	0.321	0.165	0.143	0.127
NCI-H358						0.424	0.433	0.183	0.175	0.165	0.389	0.434	0.211	0.177	0.161	0.222	0.186	0.121	0.086	0.098

Cell Line	relative viability (Alisertib + Bortezomib; first compound 0.005 µM)	relative viability (Alisertib + Bortezomib; first compound 0.01581 µM)	relative viability (Alisertib + Bortezomib; first compound 0.05 µM)	relative viability (Alisertib + Bortezomib; first compound 0.1581 µM)	relative viability (Alisertib + Bortezomib; first compound 0.5 µM)	relative viability (Alisertib + AZD7762; first compound 0.005 µM)	relative viability (Alisertib + AZD7762; first compound 0.01581 µM)	relative viability (Alisertib + AZD7762; first compound 0.05 µM)	relative viability (Alisertib + AZD7762; first compound 0.1581 µM)	relative viability (Alisertib + AZD7762; first compound 0.5 µM)	relative viability (Alisertib + Lapatinib; first compound 0.005 µM)	relative viability (Alisertib + Lapatinib; first compound 0.01581 µM)	relative viability (Alisertib + Lapatinib; first compound 0.05 µM)	relative viability (Alisertib + Lapatinib; first compound 0.1581 µM)	relative viability (Alisertib + Lapatinib; first compound 0.5 µM)	relative viability (Alisertib + Decitabine; first compound 0.005 µM)	relative viability (Alisertib + Decitabine; first compound 0.01581 µM)	relative viability (Alisertib + Decitabine; first compound 0.05 µM)	relative viability (Alisertib + Decitabine; first compound 0.1581 µM)	relative viability (Alisertib + Decitabine; first compound 0.5 µM)
NCI-H441	0.715	0.394	0.184	0.17	0.155	0.927	0.977	0.471	0.243	0.199						0.227	0.197	0.137	0.152	0.153
NCI-H520	0.463	0.377	0.199	0.173	0.186						0.76	0.449	0.276	0.258	0.242	0.435	0.451	0.355	0.236	0.242
NCI-H522						0.818	0.843	0.785	0.406	0.411						0.69	0.686	0.558	0.443	0.408
NCI-H661	0.845	0.557	0.521	0.304	0.297						0.519	0.439	0.323	0.342	0.279	0.459	0.501	0.37	0.312	0.293
NCI-H1299	0.995	0.983	0.674	0.457	0.286						0.939	0.904	0.586	0.452	0.295					
NCI-H1395						0.363	0.403	0.37	0.376	0.361	0.865	0.843	0.795	0.596	0.391	0.649	0.618	0.505	0.471	0.393
NCI-H1563	0.835	0.817	0.833	0.858	0.604						1.02	0.654	0.85	0.892	0.598					
NCI-H1648							0.654	0.62	0.314	0.223							0.478	0.405	0.279	0.247
NCI-H1650	0.175	0.21	0.174	0.182	0.199						0.768	0.222	0.203	0.175	0.228	0.336	0.326	0.2	0.162	0.189
NCI-H1703	0.337	0.287	0.134	0.147	0.102	0.119	0.134	0.115	0.0952	0.0979	1.11	0.721	0.217	0.262	0.137					
NCI-H1793						0.327	0.166	0.215	0.148	0.115	0.887	0.376	0.41	0.22	0.27	0.359	0.309	0.196	0.24	0.206
NCI-H1944						0.531	0.54	0.421	0.147	0.147	0.769	0.829	0.764	0.36	0.188	0.401	0.436	0.324	0.266	0.186
NCI-H2009	0.952	0.91	0.392	0.208	0.167						0.863	0.76	0.355	0.255	0.319	0.338	0.388	0.292	0.194	0.168
NCI-H2023	0.904	0.824	0.539	0.199	0.0763						0.848	0.602	0.41	0.135	0.0899	0.252	0.193	0.145	0.109	0.0849
NCI-H2170						0.85	0.608	0.59	0.199	0.176	0.268	0.25	0.275	0.221	0.187	0.452	0.448	0.3	0.272	0.147
NCI-H2228	0.809	0.827	0.406	0.142	0.134						0.731	0.562	0.182	0.115	0.209					
NCI-H2342						0.565	0.43	0.347	0.352	0.414						0.673	0.639	0.452	0.441	0.431
SK-LU-1	0.963	0.862	0.503	0.403	0.253						0.79	0.569	0.296	0.265	0.237	0.58	0.665	0.239	0.307	0.276
SK-MES-1											0.468	0.508	0.411	0.263	0.219	0.373	0.346	0.225	0.158	0.167
SW 1573	0.937	0.726	0.492	0.29	0.161						1.15	0.939	0.552	0.345	0.203	0.419	0.338	0.212	0.125	0.109
UMC-11	0.34	0.184	0.0876	0.107	0.122						0.438	0.29	0.162	0.163	0.158	0.514	0.324	0.291	0.213	0.214
